According to paper PMC3583384 (Journal of medicinal chemistry, 2012):
Entries after “also recorded” stand apart in the source; their conditions may differ. Read-outs that look alike come from different tables or passages of the source.

Assays:
[1] = system: rats; settings: cited from earlier work
[2] = system: non-iron-overloaded bile duct-cannulated rats; settings: rats po 150 µmol/kg, cited from earlier work; for relative percentages of the iron excreted in the bile and urine [bile/urine]: Cremophor RH-40/water
[3] = system: iron overloaded primates; settings: cited from earlier work
[4] = cited from earlier work
[5] = system: patients; settings: clinical trial, twice daily dosing; cited from earlier work
[6] = system: rats with normal iron stores; settings: for BUN / SCr: rats po 237 µmol/kg b.i.d. × 7 d (6: euthanized day 8)
[7] = system: iron overloaded primates; settings: primates po 75 µmol/kg, monosodium salt
[8] = Ligand-plasma binding, rodent plasma; assay type: in vitro ADME; settings: 37 °C, 4 h, 3,000 MWCO filter
[9] = Ligand-plasma binding, primate plasma; assay type: in vitro ADME; settings: 37 °C, 4 h, 3,000 MWCO filter

## C[C@]1(C(=O)[O-])CSC(c2ncccc2O)=N1.[Na+] [Compound 1, (S)-4,5-dihydro-2-(3-hydroxy-2-pyridinyl)-4-methyl-4-thiazolecarboxylic acid]
[1]; rats po once daily 384 µmol/kg/d
  nephrotoxicity: severely nephrotoxic
[2]
  relative percentages of the iron excreted in the bile and urine [bile/urine]: 93/7
  time at which deferration had returned to baseline: ≤ 12 h
[3]; primates po 150 µmol/kg
  relative percentages of the iron excreted in the feces and urine [feces/urine]: 78/22

## C[C@]1(C(=O)[O-])CSC(c2ccccc2O)=N1.[Na+] [Compound 2, (S)-4,5-dihydro-2-(2-hydroxyphenyl)-4-methyl-4-thiazolecarboxylic acid]
[2]
  relative percentages of the iron excreted in the bile and urine [bile/urine]: 100/0
  time at which deferration had returned to baseline: ≤ 12 h
[4]
  gastrointestinal toxicity: serious gastrointestinal (GI) problems
  nephrotoxicity: not overtly nephrotoxic
[3]; primates po 75 µmol/kg
  relative percentages of the iron excreted in the feces and urine [feces/urine]: 76/24

## C[C@]1(C(=O)[O-])CSC(c2ccc(O)cc2O)=N1.[Na+] [Compound 3, (S)-2-(2,4-dihydroxyphenyl)-4,5-dihydro-4-methyl-4-thiazolecarboxylic acid]
[5]
  renal findings in patients: increases in blood urea nitrogen (BUN) and serum creatinine (SCr) levels; also recorded: induced proximal tubule nephrotoxicity

## COCCOCCOCCOc1ccc(C2=N[C@@](C)(C(=O)O)CS2)c(O)c1 [Compound 4, (S)-4,5-dihydro-2-[2-hydroxy-4-(3,6,9-trioxadecyloxy)]-4-methyl-4-thiazolecarboxylic acid]
[1]; rats po once or twice daily
  nephrotoxicity: virtually nephrotoxicity-free

## C[C@]1(C(=O)[O-])CSC(c2ncc(O)cc2O)=N1.[Na+] [Compound 6, (S)-4,5-dihydro-2-(3,5-dihydroxy-2-pyridinyl)-4-methyl-4-thiazolecarboxylic acid]
[6]; rats po 237 µmol/kg b.i.d., until day 5
  urinary Kim-1: < 50 ng/kg/24h
[7]
  relative percentages of the iron excreted in the feces and urine [feces/urine]: 58/42

## COCCOCCOc1cnc(C2=N[C@@](C)(C(=O)[O-])CS2)c(O)c1.[Na+] [Compound 8, (S)-4,5-dihydro-2-[3-hydroxy-5-(3,6-dioxaheptyloxy)-2-pyridinyl]-4-methyl-4-thiazolecarboxylic acid]
[6]
  BUN: well within the normal range
  SCr: well within the normal range

## COCCOCCOc1ccnc(C2=N[C@@](C)(C(=O)[O-])CS2)c1O.[Na+] [Compound 10, (S)-4,5-dihydro-2-[3-hydroxy-4-(3,6-dioxaheptyloxy)-2-pyridinyl]-4-methyl-4-thiazolecarboxylic acid]
[6]
  BUN: well within the normal range
  SCr: well within the normal range
[8]
  binding of the ligand to plasma: little, if any, binding
[9]
  binding of the ligand to plasma: little, if any, binding
